Test results as given in paper PMC10290117, “Molecular mechanism of phosphopeptide neoantigen immunogenicity” (Nature Communications, 2023).

Tested on: TCR27-AKD10R3 cells
Test: X-scan (peptide scan), EGFP reporter effector cells
Assay type: cell-based, murine
Settings: Fig. 1c source data, HLA B*07, T2 cells pulsed with 25 μg peptide per 1 × 10^6 cells, 2 h, 37 °C, effector cells 2:1 overnight, mean value of triplicate
Protocol: Tap-deficient T2 (174x CEM.T2) HLA-B*0702+ cells were received from Dr. Victor Engelhard. These and the commercially purchased Tap-deficient T2 (174 x CEM.T2) cells (ATCC CRL 1991) were maintained in RPMI 1640 (BioConcept) supplemented with 10% fetal calf serum (FCS, HyClone), 2mM L-glutamine and 1% Penicillin/Streptomycin at 37 °C and 5% CO2. The EGFP reporter cell line was based on a murine TCR negative thymoma cell line derived from strain BW5417 (ATCC®TIB-47TM) and was stably transduced with (a) TCR27 in which the human constant regions were replaced with those of mouse, (b) a chimeric mouse/human CD8, and (c) an EGFP reporter construct linked to a minimal IL-2 promoter comprising three NFAT-binding sites (3xNFAT)[44]. The transduced cells were termed TCR27-AKD10R3 cells and will be called the effector cells. Mouse cell lines were cultured in SF-IMDM (BioConcept) supplemented with 3% FCS, 1% Penicillin/Streptomycin, and 50 μM beta-mercaptoethanol at 37 °C and 10% CO2.
Peptides were dissolved in dimethyl sulfoxide (DMSO) at concentrations of 2–20 mg/mL, aliquoted and stored at −80 °C. Peptide-pulsing experiments were performed by pre-incubating T2 cells with 25 μg peptide per 1 × 10^6 cells in PBS for 2 h at 37 °C and 5% CO2, washed three times to remove unbound peptides and used for further downstream analysis. Peptide-pulsed T2 cells were incubated with effector cells in a 2:1 ratio overnight in SF-IMDM at 37 °C and 10% CO2, washed twice and stained with anti-mouse TCR-® chain clone H57-597 (BD Pharmingen #560656, 1:500) for 30 min at RT. Cells were washed twice before FACS-analysis using a BD FACS Canto II with System software v2.0. Data analysis was performed using FlowJo V10 Software. Binding affinity between each peptide and HLA-B*0702 was determined using an Alpha assay. It is a homogenous, proximity-based assay for detection of peptides binding to HLA class I molecules using a conformation-dependent anti-HLA class I antibody, W6/32, as one tag and a biotinylated recombinant HLA class I molecule as the other tag, and a proximity-based signal was generated through the luminescent oxygen channeling immunoassay technology (PerkinElmer) as described.
To identify the off-target peptides we have utilized an approach that was developed previously. In brief, we investigated which amino acids at each position in pMLL747–755 enable TCR interaction by sequentially replacing every amino acid position outside of the anchor positions 2 and 9 with all 19 alternative amino acids, resulting in 134 peptides (133 altered peptides plus original epitope). Each peptide was individually evaluated using cell-based in vitro cytotoxicity assay. To represent the TCR recognition kernel, we have defined Position Weight Matrices (PWMs) for each assay by assigning normalized measurements to each of the 20 amino acids in each position. To predict potential off-target peptides, we applied an algorithm projecting the PWM-defined kernel into the human proteome, scoring TCR27 recognition for the predicted HLA-B^*0702 binding 9-mer peptides. Of the 11 peptides with highest predicted cross-reactivity scores, we confirmed that only 2, […] and pDOT1L998–1006, strongly activated the TCR27-expressing effector T cells.

Row | Substance | Percentage GFP positive from TCR+ cells
1 | EPRsPSHQM [single-residue substitution of pMLL747–755, Pos 8] | 2.83%
2 | EPPsPSHSM [single-residue substitution of pMLL747–755, Pos 3] | 1%
3 | EPRsCSHSM [single-residue substitution of pMLL747–755, Pos 5] | 0.98%
4 | EPRMPSHSM [single-residue substitution of pMLL747–755, Pos 4] | 1.25%
5 | EPRsPSHGM [single-residue substitution of pMLL747–755, Pos 8] | 1.39%
6 | QPRsPSHSM [single-residue substitution of pMLL747–755, Pos 1] | 2.64%
7 | EPRsPSWSM [single-residue substitution of pMLL747–755, Pos 7] | 1.19%
8 | EPRsPSQSM [single-residue substitution of pMLL747–755, Pos 7] | 2.94%
9 | EPRsPCHSM [single-residue substitution of pMLL747–755, Pos 6] | 8.54%
10 | KPRsPSHSM [single-residue substitution of pMLL747–755, Pos 1] | 1.37%
11 | EPRsESHSM [single-residue substitution of pMLL747–755, Pos 5] | 0.97%
12 | LPRsPSHSM [single-residue substitution of pMLL747–755, Pos 1] | 10.7%
13 | EPRsPPHSM [single-residue substitution of pMLL747–755, Pos 6] | 0.96%
14 | EPRsPMHSM [single-residue substitution of pMLL747–755, Pos 6] | 0.73%
15 | EPRAPSHSM [single-residue substitution of pMLL747–755, Pos 4] | 0.88%
16 | EPRsPSSSM [single-residue substitution of pMLL747–755, Pos 7] | 1.6%
17 | EPFsPSHSM [single-residue substitution of pMLL747–755, Pos 3] | 1.13%
18 | EPAsPSHSM [single-residue substitution of pMLL747–755, Pos 3] | 14.3%
19 | EPRsPSHVM [single-residue substitution of pMLL747–755, Pos 8] | 3.82%
20 | EPRsLSHSM [single-residue substitution of pMLL747–755, Pos 5] | 0.88%

Row | Substance | Percentage GFP positive from TCR+ cells
21 | EPRsPSDSM [single-residue substitution of pMLL747–755, Pos 7] | 0.72%
22 | EPRsPSHCM [single-residue substitution of pMLL747–755, Pos 8] | 4.53%
23 | EPRCPSHSM [pMLL747–755 with cysteine at Pos 4] | 1.02%
24 | EPRsPIHSM [single-residue substitution of pMLL747–755, Pos 6] | 0.85%
25 | EPRsFSHSM [single-residue substitution of pMLL747–755, Pos 5] | 0.91%
26 | IPRsPSHSM [single-residue substitution of pMLL747–755, Pos 1] | 1.7%
27 | EPRsSSHSM [single-residue substitution of pMLL747–755, Pos 5] | 0.79%
28 | EPRsRSHSM [single-residue substitution of pMLL747–755, Pos 5] | 0.73%
29 | EPRsPSHIM [single-residue substitution of pMLL747–755, Pos 8] | 3.8%
30 | EPGsPSHSM [single-residue substitution of pMLL747–755, Pos 3] | 1.47%
31 | CPRsPSHSM [single-residue substitution of pMLL747–755, Pos 1] | 1.3%
32 | RPRsPSHSM [single-residue substitution of pMLL747–755, Pos 1] | 1.11%
33 | EPRFPSHSM [single-residue substitution of pMLL747–755, Pos 4] | 0.91%
34 | EPRWPSHSM [single-residue substitution of pMLL747–755, Pos 4] | 0.96%
35 | EPHsPSHSM [single-residue substitution of pMLL747–755, Pos 3] | 5.91%
36 | EPRsPSHMM [single-residue substitution of pMLL747–755, Pos 8] | 5.43%
37 | EPRsPSHWM [single-residue substitution of pMLL747–755, Pos 8] | 0.87%
38 | WPRsPSHSM [single-residue substitution of pMLL747–755, Pos 1] | 1.18%
39 | EPRsPSHTM [single-residue substitution of pMLL747–755, Pos 8] | 1.97%
40 | EPRNPSHSM [single-residue substitution of pMLL747–755, Pos 4] | 1.07%

Row | Substance | Percentage GFP positive from TCR+ cells
41 | EPRsMSHSM [single-residue substitution of pMLL747–755, Pos 5] | 0.97%
42 | EPRsHSHSM [single-residue substitution of pMLL747–755, Pos 5] | 0.93%
43 | HPRsPSHSM [single-residue substitution of pMLL747–755, Pos 1] | 1.23%
44 | GPRsPSHSM [single-residue substitution of pMLL747–755, Pos 1] | 1.59%
45 | EPRsPSHLM [single-residue substitution of pMLL747–755, Pos 8] | 6.68%
46 | EPRsPAHSM [single-residue substitution of pMLL747–755, Pos 6] | 1.34%
47 | EPRsPSHEM [single-residue substitution of pMLL747–755, Pos 8] | 8.26%
48 | EPREPSHSM [pMLL747–755 with glutamate at P4] | 0.77%
49 | EPRQPSHSM [single-residue substitution of pMLL747–755, Pos 4] | 1.08%
50 | SPRsPSHSM [single-residue substitution of pMLL747–755, Pos 1] | 1.08%
51 | EPYsPSHSM [single-residue substitution of pMLL747–755, Pos 3] | 1.08%
52 | EPRsPSFSM [single-residue substitution of pMLL747–755, Pos 7] | 0.97%
53 | EPRsNSHSM [single-residue substitution of pMLL747–755, Pos 5] | 0.84%
54 | EPRsDSHSM [single-residue substitution of pMLL747–755, Pos 5] | 0.95%
55 | EPRsPSASM [single-residue substitution of pMLL747–755, Pos 7] | 0.88%
56 | EPRsPSHAM [single-residue substitution of pMLL747–755, Pos 8] | 8.72%
57 | EPIsPSHSM [single-residue substitution of pMLL747–755, Pos 3] | 1.83%
58 | EPRsPSHKM [single-residue substitution of pMLL747–755, Pos 8] | 2.14%
59 | EPRsQSHSM [single-residue substitution of pMLL747–755, Pos 5] | 0.72%
60 | EPTsPSHSM [single-residue substitution of pMLL747–755, Pos 3] | 1.16%
